Values joined by “and” are separate entries in the source; they are usually repeats but may differ in a detail not shown here. Identical values can stand only once. Toxic doses and inconclusive results are not listed. No stated cut-off is given here; in the data, active means T/C of 150% or more; inactive means T/C below 125%.
System: L1210 leukemia ip in BDF1 mice, survival T/C
Assay: NCI In Vivo Anticancer Drug Screen. Data for tumor model L1210 Leukemia (intraperitoneal) in B6D2F1 (BDF1) mice
Conditions: endpoint: mean survival time, higher = longer survival
Method in brief: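 Ratio derived from survival: compound-dosed mice over vehicle-dosed mice, all bearing a transplantable tumor.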

[1] = dose: 25.0 mg/kg/injection, schedule: Q04DX002 (ip), vehicle: saline
[2] = dose: 50.0 mg/kg/injection, schedule: Q04DX002 (ip), vehicle: saline
[3] = dose: 3.12 mg/kg/injection, schedule: Q01DX009 (ip), vehicle: saline with Tween-80
[4] = dose: 100.0 mg/kg/injection, schedule: Q01DX001 (ip), vehicle: saline
[5] = dose: 100.0 mg/kg/injection, schedule: Q01DX009 (ip), vehicle: saline
[6] = dose: 200.0 mg/kg/injection, schedule: Q01DX001 (ip), vehicle: saline
[7] = dose: 200.0 mg/kg/injection, schedule: Q01DX009 (ip), vehicle: saline
[8] = dose: 400.0 mg/kg/injection, schedule: Q01DX001 (ip), vehicle: saline
[9] = dose: 100.0 mg/kg/injection, schedule: Q01DX009 (ip), vehicle: Klucel (hydroxypropylcellulose) (HPC)
[10] = dose: 200.0 mg/kg/injection, schedule: Q01DX009 (ip), vehicle: Klucel (hydroxypropylcellulose) (HPC)
[11] = dose: 400.0 mg/kg/injection, schedule: Q01DX009 (ip), vehicle: Klucel (hydroxypropylcellulose) (HPC)
[12] = dose: 100.0 mg/kg/injection, schedule: Q04DX003 (ip), vehicle: saline
[13] = dose: 200.0 mg/kg/injection, schedule: Q04DX003 (ip), vehicle: saline
[14] = dose: 400.0 mg/kg/injection, schedule: Q04DX003 (ip), vehicle: saline
[15] = dose: 100.0 mg/kg/injection, schedule: Q01DX009 (ip), vehicle: saline with Tween-80
[16] = dose: 200.0 mg/kg/injection, schedule: Q01DX009 (ip), vehicle: saline with Tween-80
[17] = dose: 400.0 mg/kg/injection, schedule: Q01DX009 (ip), vehicle: saline with Tween-80
[18] = dose: 100.0 mg/kg/injection, schedule: Q01DX001 (ip), vehicle: carboxymethylcellulose (CMC)
[19] = dose: 200.0 mg/kg/injection, schedule: Q01DX001 (ip), vehicle: carboxymethylcellulose (CMC)
[20] = dose: 400.0 mg/kg/injection, schedule: Q01DX001 (ip), vehicle: carboxymethylcellulose (CMC)
[21] = dose: 100.0 mg/kg/injection, schedule: Q04DX003 (ip), vehicle: Klucel (hydroxypropylcellulose) (HPC)
[22] = dose: 200.0 mg/kg/injection, schedule: Q04DX003 (ip), vehicle: Klucel (hydroxypropylcellulose) (HPC)
[23] = dose: 400.0 mg/kg/injection, schedule: Q04DX003 (ip), vehicle: Klucel (hydroxypropylcellulose) (HPC)

Measured: T/C

CC1(C)OC2OC(COC(=S)Sc3ccc([N+](=O)[O-])cc3[N+](=O)[O-])C3OC(C)(C)OC3C2O1 (stereo unspecified)
inactive: dose: 6.25 mg/kg/injection, schedule: Q04DX002 (ip), vehicle: saline 95 % of control | dose: 12.5 mg/kg/injection, schedule: Q04DX002 (ip), vehicle: saline 98 % of control | [1] 106 % of control and 91 % of control | [2] 120 % of control | dose: 100.0 mg/kg/injection, schedule: Q04DX002 (ip), vehicle: saline 100 % of control

C[CH2][Sn]([CH2]C)([CH2]C)[NH]S(=O)(=O)c1ccc(C)cc1
inactive: [3] 92 % of control | dose: 12.5 mg/kg/injection, schedule: Q04DX003 (ip), vehicle: saline 106 % of control

O=NC1C(Cl)C2CC1C1c3ccccc3C21 (stereo unspecified)
inactive: [4] 95 % of control | [5] 89 % of control | [6] 104 % of control | [7] 93 % of control | [8] 93 % of control | dose: 400.0 mg/kg/injection, schedule: Q01DX009 (ip), vehicle: saline 89 % of control

CC(=O)COc1cccc([N+](=O)[O-])c1
inactive: [9] 92 % of control | [10] 90 % of control | [11] 90 % of control

CCCCCCCCCCCCCCCC[N+]1(CC)CCCC1
inactive: [1] 96 % of control | [2] 96 % of control

C[n+]1ccc(/C=C\c2ccc3c(c2)OCO3)cc1
inactive: dose: 75.0 mg/kg/injection, schedule: Q01DX001 (ip), vehicle: saline 100 % of control

Cc1cc(Cc2cc(C)c(N)cc2N)c(N)cc1N
inactive: [4] 88 % of control | [6] 93 % of control | [8] 90 % of control

CCOc1ccccc1N1C(=O)C=CC1=O
inactive: dose: 12.5 mg/kg/injection, schedule: Q04DX002 (ip), vehicle: saline with Tween-80 96 % of control | dose: 25.0 mg/kg/injection, schedule: Q04DX002 (ip), vehicle: saline with Tween-80 109 % of control

CC(=O)c1cccc(NC(=O)OCC2CC3C=CC2C3)c1 (stereo unspecified)
inactive: [9] 112 % of control | [10] 104 % of control | [11] 103 % of control

COC1=C(Br)C(=O)c2ncccc2C1=O
inactive: dose: 5.0 mg/kg/injection, schedule: Q01DX001 (ip), vehicle: carboxymethylcellulose (CMC) 104 % of control | dose: 20.0 mg/kg/injection, schedule: Q01DX001 (ip), vehicle: carboxymethylcellulose (CMC) 94 % of control

COc1ccc(C(c2ccccc2)N(N=O)C(=O)c2ccccc2)cc1 (stereo unspecified)
inactive: dose: 38.0 mg/kg/injection, schedule: Q04DX002 (ip), vehicle: Klucel (hydroxypropylcellulose) (HPC) 94 % of control | dose: 75.0 mg/kg/injection, schedule: Q04DX002 (ip), vehicle: Klucel (hydroxypropylcellulose) (HPC) 94 % of control | dose: 150.0 mg/kg/injection, schedule: Q04DX002 (ip), vehicle: Klucel (hydroxypropylcellulose) (HPC) 94 % of control

O=C1CSCCN1
inactive: [12] 101 % of control | [13] 101 % of control | [14] 98 % of control

C=CN1C(=O)NC(C)(CC(C)C)C1=O (stereo unspecified)
inactive: [15] 104 % of control | [16] 91 % of control | [17] 92 % of control

O=C(Nc1cccc2ccccc12)OCCCl
inactive: [18] 93 % of control | [19] 90 % of control | [20] 95 % of control

CC(C)CCCCCCCCOC(=O)c1ccccc1C(=O)OCCCCCCCCC(C)C
inactive: [4] 98 % of control | [6] 103 % of control | [8] 103 % of control

CC(Br)C(=O)NCC(=O)O (stereo unspecified)
inactive: [15] 93 % of control | [16] 92 % of control

O=C(Cc1ccccc1)OCCc1ccccc1
inactive: [9] 98 % of control and 105 % of control | [21] 94 % of control and 98 % of control | [10] 97 % of control and 89 % of control | [22] 94 % of control and 100 % of control | [11] 101 % of control and 104 % of control | [23] 96 % of control and 100 % of control

ClCc1csc(-c2ccccc2)n1
inactive: [15] 115 % of control | [16] 94 % of control | [17] 92 % of control

C=CCN(CC=C)C(=O)C1C2CC3OC(=O)C1C3C2 (stereo unspecified)
inactive: [12] 94 % of control and 104 % of control | [13] 109 % of control and 104 % of control | [14] 94 % of control and 102 % of control

CCCC(C)c1cc([N+](=O)[O-])cc([N+](=O)[O-])c1O (stereo unspecified)
inactive: [3] 107 % of control | dose: 6.25 mg/kg/injection, schedule: Q01DX009 (ip), vehicle: saline with Tween-80 98 % of control | dose: 12.5 mg/kg/injection, schedule: Q01DX009 (ip), vehicle: saline with Tween-80 91 % of control

S=C(Nc1ccccc1)NC1CC2C=CC1CC2 (stereo unspecified)
inactive: [4] 90 % of control | [6] 92 % of control | [8] 113 % of control

CC1([N+](=O)[O-])COP(=O)(NCc2ccncc2)OC1 (stereo unspecified)
inactive: dose: 50.0 mg/kg/injection, schedule: Q01DX001 (ip), vehicle: carboxymethylcellulose (CMC) 107 % of control | [18] 104 % of control | [19] 104 % of control | [20] 109 % of control

Nc1ccccc1SC1CC(=O)N(c2ccc(Oc3ccc(Cl)cc3)cc2)C1=O (stereo unspecified)
inactive: dose: 75.0 mg/kg/injection, schedule: Q01DX009 (ip), vehicle: Klucel (hydroxypropylcellulose) (HPC) 87 % of control | dose: 150.0 mg/kg/injection, schedule: Q01DX009 (ip), vehicle: Klucel (hydroxypropylcellulose) (HPC) 98 % of control | dose: 300.0 mg/kg/injection, schedule: Q01DX009 (ip), vehicle: Klucel (hydroxypropylcellulose) (HPC) 92 % of control

Cc1cc(Nc2ncnc(Cl)c2N)ccc1N
inactive: [18] 93 % of control | [19] 98 % of control | [20] 96 % of control

CCCCCCCCCCCCOC(=N)N1CCOCC1
inactive: dose: 11.1 mg/kg/injection, schedule: Q01DX Z (ip), vehicle: saline 102 % of control | dose: 16.6 mg/kg/injection, schedule: Q01DX Z (ip), vehicle: saline 102 % of control | dose: 25.0 mg/kg/injection, schedule: Q01DX Z (ip), vehicle: saline 98 % of control

O=C(C[P+](c1ccccc1)(c1ccccc1)c1ccccc1)c1ccc([N+](=O)[O-])cc1
inactive: [4] 105 % of control | [6] 105 % of control | [8] 100 % of control

Cc1[nH]c2ccccc2c(=O)c1-c1ccccc1
inactive: dose: 50.0 mg/kg/injection, schedule: Q01DX001 (ip), vehicle: saline 98 % of control | [4] 98 % of control | [6] 102 % of control | [8] 96 % of control

CN(C)C(N)=O
inactive: dose: 75.0 mg/kg/injection, schedule: Q01DX009 (ip), vehicle: saline 102 % of control | dose: 150.0 mg/kg/injection, schedule: Q01DX009 (ip), vehicle: saline 98 % of control | dose: 300.0 mg/kg/injection, schedule: Q01DX009 (ip), vehicle: saline 100 % of control

CNC(=O)NNC(=O)c1ccc(Cl)cc1
inactive: dose: 25.0 mg/kg/injection, schedule: Q01DX009 (ip), vehicle: saline with Tween-80 91 % of control | dose: 50.0 mg/kg/injection, schedule: Q01DX009 (ip), vehicle: saline with Tween-80 94 % of control

CC(=O)OCc1ccc(Cl)cc1
inactive: [5] 96 % of control | [7] 102 % of control

COc1ccc2c(c1C)CCC13CC(C)C(CC21)OC3=O (stereo unspecified)
inactive: dose: 100.0 mg/kg/injection, schedule: Q01DX001 (ip), vehicle: Klucel (hydroxypropylcellulose) (HPC) 102 % of control | dose: 200.0 mg/kg/injection, schedule: Q01DX001 (ip), vehicle: Klucel (hydroxypropylcellulose) (HPC) 101 % of control | dose: 400.0 mg/kg/injection, schedule: Q01DX001 (ip), vehicle: Klucel (hydroxypropylcellulose) (HPC) 109 % of control

COC1CCC2CC3(CCC2(C)C1O)OCCO3 (stereo unspecified)
inactive: [18] 100 % of control | [19] 105 % of control | [20] 97 % of control

COC1CC(C)C(Cl)C(C)C1/C=C/C(=O)O (stereo unspecified)
inactive: dose: 50.0 mg/kg/injection, schedule: Q01DX001 (ip), vehicle: saline with Tween-80 101 % of control | dose: 100.0 mg/kg/injection, schedule: Q01DX001 (ip), vehicle: saline with Tween-80 94 % of control | dose: 200.0 mg/kg/injection, schedule: Q01DX001 (ip), vehicle: saline with Tween-80 94 % of control

CC(=O)OCC1OC(OC(C)=O)C(NC(=O)N(C)C)C(OC(C)=O)C1OC(C)=O (stereo unspecified)
inactive: dose: 50.0 mg/kg/injection, schedule: Q04DX003 (ip), vehicle: saline 103 % of control | [21] 101 % of control | [12] 106 % of control | [22] 103 % of control | [13] 101 % of control | [23] 103 % of control
